According to PubChem BioAssay (NCI):
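Interpolation was linear, between the two tested concentrations surrounding the appropriate level; five concentrations were tested over 48 hours in 96-well plates. GI50 is the concentration that inhibits growth by half. At the TGI there is no net growth.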

Key:
Experiment in all cases: DTP human tumour cell line panel, 48 h
786-0 renal = tested on: 786-0 renal
A498 renal = tested on: A498 renal
A549 NSCLC = tested on: A549 NSCLC
ACHN renal = tested on: ACHN renal
BT-549 breast = tested on: BT-549 breast
CAKI-1 renal = tested on: CAKI-1 renal
CCRF-CEM leukemia = tested on: CCRF-CEM leukemia
COLO 205 colon = tested on: COLO 205 colon
DU-145 prostate = tested on: DU-145 prostate
EKVX NSCLC = tested on: EKVX NSCLC
HCC-2998 colon = tested on: HCC-2998 colon
HCT-116 colon = tested on: HCT-116 colon
HCT-15 colon = tested on: HCT-15 colon
HL-60(TB) leukemia = tested on: HL-60(TB) leukemia
HOP-62 NSCLC = tested on: HOP-62 NSCLC
HOP-92 NSCLC = tested on: HOP-92 NSCLC
HS 578T breast = tested on: HS 578T breast
HT29 colon = tested on: HT29 colon
IGROV1 ovarian = tested on: IGROV1 ovarian
K-562 leukemia = tested on: K-562 leukemia
KM12 colon = tested on: KM12 colon
LOX IMVI melanoma = tested on: LOX IMVI melanoma
M14 melanoma = tested on: M14 melanoma
MALME-3M melanoma = tested on: MALME-3M melanoma
MCF7 breast = tested on: MCF7 breast
MDA-MB-231 breast = tested on: MDA-MB-231 breast
MDA-MB-435 = tested on: MDA-MB-435
MOLT-4 leukemia = tested on: MOLT-4 leukemia
NCI-H226 lung = tested on: NCI-H226 lung
NCI-H23 lung = tested on: NCI-H23 lung
NCI-H460 lung = tested on: NCI-H460 lung
NCI-H522 lung = tested on: NCI-H522 lung
NCI/ADR-RES ovarian = tested on: NCI/ADR-RES ovarian
OVCAR-3 ovarian = tested on: OVCAR-3 ovarian
OVCAR-4 ovarian = tested on: OVCAR-4 ovarian
OVCAR-5 ovarian = tested on: OVCAR-5 ovarian
OVCAR-8 ovarian = tested on: OVCAR-8 ovarian
PC-3 prostate = tested on: PC-3 prostate
RPMI-8226 leukemia = tested on: RPMI-8226 leukemia
RXF 393 renal = tested on: RXF 393 renal
SF-268 CNS = tested on: SF-268 CNS
SF-295 CNS = tested on: SF-295 CNS
SF-539 CNS = tested on: SF-539 CNS
SK-MEL-2 melanoma = tested on: SK-MEL-2 melanoma
SK-MEL-28 melanoma = tested on: SK-MEL-28 melanoma
SK-MEL-5 melanoma = tested on: SK-MEL-5 melanoma
SK-OV-3 ovarian = tested on: SK-OV-3 ovarian
SN12C renal = tested on: SN12C renal
SNB-19 CNS = tested on: SNB-19 CNS
SNB-75 CNS = tested on: SNB-75 CNS
SW-620 colon = tested on: SW-620 colon
T-47D breast = tested on: T-47D breast
TK-10 renal = tested on: TK-10 renal
U251 CNS = tested on: U251 CNS
UACC-257 melanoma = tested on: UACC-257 melanoma
UACC-62 melanoma = tested on: UACC-62 melanoma
UO-31 renal = tested on: UO-31 renal

## CCc1c(C)[nH]c(/C=C2\N=C(c3ccc[nH]3)C=C2OC)c1C
786-0 renal
  GI50: 0.177 µM
  TGI: 0.675 µM
A498 renal
  GI50: 6.87 µM
  TGI: 21.5 µM
A549 NSCLC
  GI50: 0.498 µM
  TGI: 10.5 µM
ACHN renal
  GI50: 0.316 µM
  TGI: 2.19 µM
BT-549 breast
  GI50: 0.129 µM
  TGI: 3.87 µM
CAKI-1 renal
  GI50: 0.292 µM
  TGI: 3.53 µM
CCRF-CEM leukemia
  GI50: < 0.0257 µM
  TGI: 2.11 µM
COLO 205 colon
  GI50: 0.268 µM
  TGI: 1.88 µM
DU-145 prostate
  GI50: 0.219 µM
  TGI: 11 µM
EKVX NSCLC
  GI50: 0.707 µM
  TGI: 9.93 µM
HCC-2998 colon
  GI50: 0.451 µM
  TGI: 4.65 µM
HCT-116 colon
  GI50: < 0.0462 µM
HCT-15 colon
  GI50: 0.0935 µM
  TGI: 3.75 µM
HL-60(TB) leukemia
  GI50: 0.127 µM
  TGI: 2.1 µM
HOP-62 NSCLC
  GI50: 0.25 µM
  TGI: 4.04 µM
HOP-92 NSCLC
  GI50: 0.135 µM
  TGI: 0.682 µM
HS 578T breast
  GI50: 0.164 µM
  TGI: 2.3 µM
HT29 colon
  GI50: < 0.0376 µM
  TGI: 2.29 µM
IGROV1 ovarian
  GI50: 0.274 µM
  TGI: 3.53 µM
K-562 leukemia
  GI50: 0.805 µM
  TGI: 8.97 µM
KM12 colon
  GI50: 0.0944 µM
  TGI: 5.26 µM
LOX IMVI melanoma
  GI50: < 0.0328 µM
M14 melanoma
  GI50: 0.256 µM
  TGI: 2.99 µM
MALME-3M melanoma
  GI50: 0.474 µM
  TGI: 2.05 µM
MCF7 breast
  GI50: 0.4 µM
  TGI: 6.93 µM
MDA-MB-231 breast
  GI50: 0.128 µM
  TGI: 3.16 µM
MDA-MB-435
  GI50: 0.0733 µM
  TGI: 1.42 µM
MOLT-4 leukemia
  GI50: < 0.0394 µM
  TGI: 4.18 µM
NCI-H226 lung
  GI50: 0.812 µM
  TGI: 8.83 µM
NCI-H23 lung
  GI50: 1.1 µM
  TGI: 11.3 µM
NCI-H460 lung
  GI50: 0.094 µM
  TGI: 10.8 µM
NCI-H522 lung
  GI50: 0.576 µM
  TGI: 2.34 µM
NCI/ADR-RES ovarian
  GI50: 0.17 µM
  TGI: 6.42 µM
OVCAR-3 ovarian
  GI50: 0.143 µM
  TGI: 3.18 µM
OVCAR-4 ovarian
  GI50: 0.893 µM
  TGI: 12.5 µM
OVCAR-5 ovarian
  GI50: 0.413 µM
  TGI: 7.3 µM
OVCAR-8 ovarian
  GI50: 0.232 µM
  TGI: > 24.1 µM
PC-3 prostate
  GI50: 0.153 µM
  TGI: 10.8 µM
RPMI-8226 leukemia
  GI50: 0.0239 µM
  TGI: 1.05 µM
RXF 393 renal
  GI50: 0.473 µM
  TGI: 4.11 µM
SF-268 CNS
  GI50: 0.224 µM
  TGI: 11.3 µM
SF-295 CNS
  GI50: 0.747 µM
  TGI: 3.03 µM
SF-539 CNS
  GI50: 0.448 µM
  TGI: 2.16 µM
SK-MEL-2 melanoma
  GI50: 0.234 µM
  TGI: 0.989 µM
SK-MEL-28 melanoma
  GI50: 0.365 µM
  TGI: 1.87 µM
SK-MEL-5 melanoma
  GI50: 0.159 µM
  TGI: 0.545 µM
SK-OV-3 ovarian
  GI50: 2.95 µM
  TGI: 13.5 µM
SN12C renal
  GI50: 0.627 µM
  TGI: 15.6 µM
SNB-19 CNS
  GI50: 1.96 µM
  TGI: 15.7 µM
SNB-75 CNS
  GI50: 0.269 µM
  TGI: 0.71 µM
SW-620 colon
  TGI: 6.56 µM
T-47D breast
  GI50: 0.545 µM
  TGI: 3.22 µM
TK-10 renal
  GI50: 0.276 µM
  TGI: 8.85 µM
U251 CNS
  GI50: 0.275 µM
  TGI: 7.33 µM
UACC-257 melanoma
  GI50: 0.432 µM
  TGI: 2.65 µM
UACC-62 melanoma
  GI50: 0.341 µM
  TGI: 1.59 µM
UO-31 renal
  GI50: 0.176 µM
  TGI: 0.591 µM

## O=C1C2C(C(=O)N1c1ccc(OCc3ccccc3)cc1)C1c3ccccc3C2C2CCCCN21 (stereo unspecified)
COLO 205 colon
  GI50: 73.3 µM
HT29 colon
  GI50: 79.7 µM
K-562 leukemia
  GI50: 59.8 µM
NCI-H522 lung
  GI50: 53.5 µM
RPMI-8226 leukemia
  GI50: 64 µM
SNB-19 CNS
  GI50: 47.6 µM
SNB-75 CNS
  GI50: 61.4 µM
U251 CNS
  GI50: 41.5 µM
UO-31 renal
  GI50: 32.7 µM

## C=CCC(N[C@H](CO)C(C)C)c1cn(C(=O)OCC)c2ccccc12 (stereo partly specified)
786-0 renal
  GI50: 28.4 µM
  TGI: 72.7 µM
A549 NSCLC
  GI50: 24.9 µM
  TGI: 82 µM
ACHN renal
  GI50: 32.1 µM
  TGI: > 100 µM
BT-549 breast
  GI50: 24.7 µM
  TGI: 67.8 µM
CAKI-1 renal
  GI50: 13.8 µM
  TGI: 41.1 µM
CCRF-CEM leukemia
  GI50: 22.4 µM
  TGI: 70.2 µM
COLO 205 colon
  GI50: 25.4 µM
  TGI: 65.9 µM
DU-145 prostate
  GI50: 30.1 µM
  TGI: > 100 µM
EKVX NSCLC
  GI50: 22.9 µM
  TGI: 77 µM
HCC-2998 colon
  GI50: 17 µM
  TGI: 33.6 µM
HCT-116 colon
  GI50: 24.2 µM
  TGI: 68.8 µM
HCT-15 colon
  GI50: 32.4 µM
  TGI: > 100 µM
HOP-62 NSCLC
  GI50: 28.6 µM
  TGI: 89.1 µM
HOP-92 NSCLC
  GI50: 14.1 µM
  TGI: 45.6 µM
HS 578T breast
  GI50: 22.7 µM
  TGI: > 100 µM
HT29 colon
  GI50: 36.1 µM
  TGI: > 100 µM
IGROV1 ovarian
  GI50: 7.81 µM
  TGI: 57.1 µM
K-562 leukemia
  GI50: 11.1 µM
  TGI: 25.8 µM
KM12 colon
  GI50: 21.7 µM
  TGI: 59.7 µM
LOX IMVI melanoma
  GI50: 19.4 µM
  TGI: 49.5 µM
M14 melanoma
  GI50: 21.3 µM
  TGI: 46 µM
MCF7 breast
  GI50: 35 µM
  TGI: > 100 µM
MDA-MB-231 breast
  GI50: 13.2 µM
  TGI: 31.2 µM
MDA-MB-435
  GI50: 20.3 µM
  TGI: 50.5 µM
MOLT-4 leukemia
  GI50: 15.4 µM
  TGI: 34.7 µM
NCI-H23 lung
  GI50: 19.1 µM
  TGI: 49.3 µM
NCI-H460 lung
  GI50: 32.4 µM
  TGI: > 100 µM
NCI-H522 lung
  GI50: 17.9 µM
  TGI: 40.2 µM
NCI/ADR-RES ovarian
  GI50: 21.8 µM
  TGI: 61 µM
OVCAR-3 ovarian
  GI50: 16.6 µM
  TGI: 43.3 µM
OVCAR-4 ovarian
  GI50: 49.6 µM
  TGI: > 100 µM
OVCAR-5 ovarian
  GI50: 48.6 µM
  TGI: > 100 µM
OVCAR-8 ovarian
  GI50: 21.7 µM
  TGI: 48.2 µM
PC-3 prostate
  GI50: 15.9 µM
  TGI: 43.9 µM
RPMI-8226 leukemia
  GI50: 13.3 µM
  TGI: 40.7 µM
RXF 393 renal
  GI50: 18.9 µM
  TGI: 54.2 µM
SF-268 CNS
  GI50: 33.4 µM
  TGI: > 100 µM
SF-295 CNS
  GI50: 15.9 µM
  TGI: 38.1 µM
SF-539 CNS
  GI50: 28.2 µM
  TGI: 69.9 µM
SK-MEL-2 melanoma
  GI50: 42.3 µM
  TGI: > 100 µM
SK-MEL-28 melanoma
  GI50: 53.6 µM
  TGI: > 100 µM
SK-MEL-5 melanoma
  GI50: 10.2 µM
  TGI: 23.7 µM
SK-OV-3 ovarian
  GI50: 81.3 µM
  TGI: > 100 µM
SN12C renal
  GI50: 19.7 µM
  TGI: 51.6 µM
SNB-19 CNS
  GI50: 59.9 µM
  TGI: > 100 µM
SNB-75 CNS
  GI50: 69.3 µM
  TGI: > 100 µM
SW-620 colon
  GI50: 27.9 µM
  TGI: > 100 µM
T-47D breast
  GI50: 39.9 µM
  TGI: > 100 µM
TK-10 renal
  GI50: 13.7 µM
  TGI: 44.1 µM
U251 CNS
  GI50: 27.4 µM
  TGI: > 100 µM
UACC-257 melanoma
  GI50: 18.3 µM
  TGI: 44.2 µM
UACC-62 melanoma
  GI50: 22.7 µM
  TGI: 54.8 µM
UO-31 renal
  GI50: 45.2 µM
  TGI: > 100 µM
